Patent US20020193422A1, “Anthranilamides and methods of their use” (priority 2001, published 2002)

What follows are compounds tested against T1, Human Kv1.5 channels (Homo sapiens, UniProt P22460) (assay: Kv1.5 currents in Xenopus oocytes, two-microelectrode voltage clamp). Settings: human Kv1.5 expressed in Xenopus laevis oocytes; 500 ms voltage jumps to 0 mV and 40 mV; room temperature; percentage inhibition of control current fitted with Hill equation.
T1 construct: expressed in transfected cells; host or cells: Xenopus laevis oocytes (injected with in vitro synthesized Kv1.5 coding RNA)
Format: cell-based
Experimental: Human Kv1.5 channels were expressed in xenopus oocytes. For this purpose, oocytes from Xenopus laevis were first isolated and defolliculated. Kv1.5 coding RNA synthesized in vitro was then injected into these oocytes. After Kv1.5 protein expression for 1-7 days, Kv1.5 currents were measured in the oocytes using the two-microelectrode voltage clamp technique. The Kv1.5 channels were activated here with 500 ms voltage jumps to 0 mV and 40 mV. The bath was flushed with a solution of the following: NaCl 96 mM, KCl 2 mM, CaCl2 1.8 mM, MgCl2 1 mM, HEPES 5 mM (titrated with NaOH to pH 7.4). These experiments were carried out at room temperature. The following were used for data collection and analysis: Geneclamp amplifier (Axon Instruments, Foster City, USA) and MacLab D/A converter and software (ADInstruments, Castle Hill, Australia). The compounds according to the invention were tested by adding them to the bath solution in different concentrations. The effects of the compounds were calculated as percentage inhibition of the Kv1.5 control current which was obtained when no compound was added to the solution. The data were then extrapolated using the Hill equation, in order to determine the inhibitory concentrations (IC50) for the respective compounds.

T1 sequence (P22460 whole entry): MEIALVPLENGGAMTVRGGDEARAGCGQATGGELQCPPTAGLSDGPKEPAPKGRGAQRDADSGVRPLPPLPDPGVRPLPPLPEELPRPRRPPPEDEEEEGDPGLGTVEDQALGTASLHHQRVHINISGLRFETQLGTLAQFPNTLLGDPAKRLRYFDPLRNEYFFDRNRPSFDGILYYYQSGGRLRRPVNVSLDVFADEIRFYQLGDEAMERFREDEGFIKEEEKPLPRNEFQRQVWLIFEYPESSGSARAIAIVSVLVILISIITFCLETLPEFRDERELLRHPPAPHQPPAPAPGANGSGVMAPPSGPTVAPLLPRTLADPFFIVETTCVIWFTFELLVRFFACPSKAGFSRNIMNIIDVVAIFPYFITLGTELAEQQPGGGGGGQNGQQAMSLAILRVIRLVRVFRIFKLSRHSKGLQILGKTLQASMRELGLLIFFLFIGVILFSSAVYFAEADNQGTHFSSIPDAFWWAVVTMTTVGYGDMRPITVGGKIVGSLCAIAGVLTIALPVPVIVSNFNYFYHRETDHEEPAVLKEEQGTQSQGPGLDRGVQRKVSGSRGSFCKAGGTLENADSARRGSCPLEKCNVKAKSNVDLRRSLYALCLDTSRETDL

Row | SMILES | IC50
1 | COc1ccc(NS(=O)(=O)c2cccc(C(F)(F)F)c2)c(C(=O)NCCc2cccs2)c1 [Example 1] | 3 µM
2 | COc1ccc(S(=O)(=O)Nc2cc(F)ccc2C(=O)N(C)Cc2ccccc2)cc1 [Example 2] | 4.1 µM
3 | COc1ccc(NS(=O)(=O)c2ccc(C)cc2)c(C(=O)NCc2ccc(C)o2)c1 [Example 3] | 2.1 µM
4 | Cc1cccc(NS(=O)(=O)c2ccc(Cl)cc2)c1C(=O)NCc1ccc(Cl)cc1 [Example 4] | 2.4 µM
5 | CCN(Cc1ccccc1)C(=O)c1ccccc1NS(=O)(=O)c1ccc(Cl)cc1 [Example 5] | 3.2 µM
6 | Cc1ccc(S(=O)(=O)Nc2ccccc2C(=O)NCc2ccccc2)cc1 [Example 6] | 4.1 µM
7 | CCN(Cc1ccccc1)C(=O)c1ccccc1NS(=O)(=O)c1ccc(C)cc1 [Example 7] | 5 µM
8 | Cc1ccc(S(=O)(=O)Nc2ccccc2C(=O)N(C)CCc2ccccc2)cc1 [Example 8] | 4.6 µM
9 | CCN(Cc1ccccc1)C(=O)c1ccccc1NS(=O)(=O)c1ccccc1 [Example 9] | 4.7 µM
10 | O=C(NCCc1ccccc1)c1ccccc1NS(=O)(=O)c1ccccc1 [Example 10] | 3.8 µM
11 | CN(CCc1ccccc1)C(=O)c1ccccc1NS(=O)(=O)c1ccccc1 [Example 11] | 3.7 µM
12 | Cc1ccc(S(=O)(=O)Nc2ccc(F)cc2C(=O)NCc2ccccc2)cc1 [Example 12] | 3.6 µM
13 | CCN(Cc1ccccc1)C(=O)c1cc(F)ccc1NS(=O)(=O)c1ccc(C)cc1 [Example 13] | 3.7 µM
14 | Cc1ccc(S(=O)(=O)Nc2ccc(F)cc2C(=O)NCCc2ccccc2)cc1 [Example 14] | 4.1 µM
15 | COc1ccc(S(=O)(=O)Nc2ccc(OC)cc2C(=O)N(C)Cc2ccccc2)cc1 [Example 15] | 4.5 µM
16 | COc1ccc(CNC(=O)c2cc(OC)ccc2NS(=O)(=O)c2ccc(Cl)cc2)cc1 [Example 16] | 3.3 µM
17 | CCN(C(=O)c1cc(C)ccc1NS(=O)(=O)c1ccc(C)cc1)c1ccccc1 [Example 17] | 1.6 µM
18 | Cc1ccc(S(=O)(=O)Nc2ccccc2C(=O)NCc2cccc(C)c2)cc1 [Example 18] | 3.5 µM
19 | COc1ccc(NS(=O)(=O)c2ccc(C)cc2)c(C(=O)NCCc2cccs2)c1 [Example 19] | 2.6 µM
20 | Cc1ccc(CNC(=O)c2c(C)cccc2NS(=O)(=O)c2ccc(C)c(Cl)c2)o1 [Example 20] | 3.8 µM
21 | CCCCS(=O)(=O)Nc1ccc(C)cc1C(=O)NCc1ccc(Cl)cc1 [Example 21] | 6.1 µM
22 | O=C(NCc1ccccc1)c1cc(Cl)ccc1NS(=O)(=O)c1ccc(Cl)cc1 [Example 22] | 6 µM
23 | COc1ccc(NS(=O)(=O)c2cccc3cccnc23)c(C(=O)NCCc2ccc(OC)c(OC)c2)c1 [Example 23] | 6.9 µM
24 | CN(Cc1ccccc1)C(=O)c1ccccc1NS(=O)(=O)c1cccc2cccnc12 [Example 24] | 4.6 µM
25 | CCc1ccc(S(=O)(=O)Nc2ccccc2C(=O)N(CC)c2ccccc2)cc1 [Example 25] | 4.2 µM
26 | CCN(C(=O)c1ccccc1NS(=O)(=O)c1ccc2ccccc2c1)c1ccccc1 [Example 26] | 5.6 µM
27 | CCN(C(=O)c1ccccc1NS(=O)(=O)c1ccc(C)cc1OC)c1ccccc1 [Example 27] | 3 µM
28 | CCN(C(=O)c1ccccc1NS(=O)(=O)c1cccc2cccnc12)c1ccccc1 [Example 28] | 1.2 µM
29 | CCN(C(=O)c1ccccc1NS(=O)(=O)c1cccc2ccccc12)c1ccccc1 [Example 29] | 1.9 µM
